Values quoted from earlier work as cited in PMC10817174, “Integrated drug response prediction models pinpoint repurposed drugs with effectiveness against rhabdomyosarcoma” (PLOS ONE, 2024).

What was measured:
GDSC-RD cell line = conditions: Table S2, published drug response ref Iorio et al. (2016); cited from earlier work
GDSC-SJCRH30 cell line = conditions: Table S2, published drug response ref Iorio et al. (2016); cited from earlier work

Row | Compound | Iorio_RD (GDSC-RD cell line) | Iorio_SJCRH30 (GDSC-SJCRH30 cell line)
1 | [H]/N=C(/N)N/C(=N/[H])NCCc1ccccc1 [Phenformin] | R | R
2 | O=C(NC1CCNCC1)c1[nH]ncc1NC(=O)c1c(Cl)cccc1Cl [AT-7519] | R | R
3 | Cc1cccc(-c2[nH]c(C(C)(C)C)nc2-c2ccc3c(c2)OCO3)n1 [SB-505124] | R | R
4 | COc1ccc(C2=N[C@@H](c3ccc(Cl)cc3)[C@@H](c3ccc(Cl)cc3)N2C(=O)N2CCNC(=O)C2)c(OC(C)C)c1 [Nutlin-3a] | – | R
5 | OC[C@H](Cc1ccccc1)Nc1nc(Oc2ccc3c(c2)CCC3)nc2c1ncn2Cc1ccc(-c2ccccc2)cc1 [QS11] | R | R
6 | O=C1NC(=NCc2cccs2)S/C1=C\c1ccc2ncccc2c1 [RO-3306] | – | R
7 | C=CC(=O)Nc1cc(NC(=O)c2ccc(C)c(NC(=O)c3ccno3)c2)cc(C(F)(F)F)c1 [QL-XI-92] | S | S
8 | C/C(=C\c1csc(C)n1)[C@@H]1C[C@@H]2O[C@]2(C)CCC[C@H](C)[C@H](O)[C@@H](C)C(=O)C(C)(C)[C@@H](O)CC(=O)O1 [Epothilone-B] | R | R
9 | CCCC(=O)OCc1ccc(OC(=O)/C=C(C)/C=C/C=C(C)/C=C/C2=C(C)CCCC2(C)C)cc1 [VNLG-124] | R | R
10 | Nc1ccn([C@@H]2O[C@H](CO)[C@@H](O)[C@@H]2O)c(=O)n1 [Cytarabine] | – | S
11 | COc1ccc(-c2ccc3c(N4CCOC[C@@H]4C)nc(N4CCOC[C@@H]4C)nc3n2)cc1CO [AZD8055] | – | R
12 | CNC(=O)c1ccc(Nc2cc(Nc3ccccc3S(=O)(=O)C(C)C)c3cc[nH]c3n2)nc1 [HG-5-113-01] | – | R
13 | COc1cc([C@@H]2c3cc4c(cc3[C@@H](O[C@@H]3O[C@@H]5CO[C@@H](C)O[C@H]5[C@H](O)[C@H]3O)[C@H]3COC(=O)[C@H]23)OCO4)cc(OC)c1O [Etoposide] | R | R
14 | O=c1cc(N2CCOCC2)oc2c(-c3cccc4c3sc3ccccc34)cccc12 [NU-7441] | – | R
15 | O=c1[nH]cc(F)c(=O)[nH]1 [5-Fluorouracil] | R | R
16 | C#Cc1cccc(Nc2ncnc3cc(OC)c(OCCCCCCC(=O)NO)cc23)c1 [CUDC-101] | R | R
17 | C=CCNC1=C2C[C@@H](C)C[C@H](OC)[C@H](O)[C@@H](C)/C=C(\C)[C@H](OC(N)=O)[C@@H](OC)/C=C\C=C(/C)C(=O)NC(=CC1=O)C2=O [17-AAG] | – | R
18 | C[C@]1(O)C[C@@H](c2nc(-c3ccc4ccc(-c5ccccc5)nc4c3)c3c(N)nccn32)C1 [OSI-906] | S | S
19 | CC1=C(C(=O)Nc2cc3cn[nH]c3cc2F)C(c2ccc(C(F)(F)F)cc2)CC(=O)N1 (stereo not drawn) [GSK429286A] | R | R
20 | CC[C@H](Nc1ncnc2[nH]cnc12)c1nc2cccc(F)c2c(=O)n1-c1ccccc1 [CAL-101] | R | R
21 | Nc1cccc2c1CN(C1CCC(=O)NC1=O)C2=O (stereo not drawn) [Lenalidomide] | – | R

Row | Compound | Iorio_RD (GDSC-RD cell line) | Iorio_SJCRH30 (GDSC-SJCRH30 cell line)
22 | Cc1cccc(-c2[nH]c(C(C)(C)C)nc2-c2ccc3nccnc3c2)n1 [SB52334] | R | R
23 | COCC(=O)NC/C=C/c1ccc2ncnc(Nc3ccc(Oc4ccc(C)nc4)c(C)c3)c2c1 [CP724714] | R | R
24 | COC1=CC(c2cc3ccccc3[nH]2)=N/C1=C\c1[nH]c(C)cc1C [Obatoclax-Mesylate] | R | R
25 | Cc1ccc(-c2c(C(=O)CF)n(CCCO)c3ncnc(N)c23)cc1 [FMK] | R | R
26 | CNCc1ccc(-c2[nH]c3cc(F)cc4c3c2CCNC4=O)cc1 [AG-014699] | R | R
27 | COc1ncc(-c2ccc3nccc(-c4ccnnc4)c3c2)cc1NS(=O)(=O)c1ccc(F)cc1F [GSK2126458] | R | R
28 | NC1(c2ccc(-c3nc4ccn5c(=O)[nH]nc5c4cc3-c3ccccc3)cc2)CCC1 [MK-2206] | – | R
29 | NC(=O)c1ncn([C@@H]2O[C@H](CO)[C@@H](O)[C@H]2O)c1N [AICAR] | – | R
30 | CN(C)C/C=C/C(=O)Nc1ccc(C(=O)Nc2cccc(Nc3nccc(-c4cccnc4)n3)c2)cc1 [ZG-10] | – | R
31 | CCOc1nc(NC(=O)Cc2cc(OC)ccc2OC)cc(N)c1C#N [JNK-Inhibitor-VIII] | – | R
32 | Cn1c(=O)n(-c2ccc(C(C)(C)C#N)cc2)c2c3cc(-c4cnc5ccccc5c4)ccc3ncc21 [NVP-BEZ235] | – | R
33 | CCOc1cc(N2CCC(O)CC2)ccc1Nc1ncc2c(n1)N(C)c1ccccc1C(=O)N2C [XMD8-92] | – | R
34 | COc1cc2c(Nc3ccc(NC(=O)c4ccccc4)cc3)ncnc2cc1OCCCN1CCOCC1 [ZM-447439] | – | R
35 | CC1=C(/C=C/C(C)=C/C=C/C(C)=C/C(=O)O)C(C)(C)CCC1 [ATRA] | – | R
36 | O=C(NOC[C@H](O)CO)c1ccc(F)c(F)c1Nc1ccc(I)cc1F [PD-0325901] | – | R
37 | O=C(NCCCNc1nc(Nc2cccc(NC(=O)N3CCCC3)c2)ncc1I)c1cccs1 [BX-795] | – | R
38 | CNC(=O)c1ccccc1Sc1ccc2c(/C=C/c3ccccn3)n[nH]c2c1 [Axitinib] | – | R
39 | CC(=O)c1c(C)c2cnc(Nc3ccc(N4CCNCC4)cn3)nc2n(C2CCCC2)c1=O [PD-0332991] | – | R
40 | C[C@]12O[C@H](C[C@]1(O)CO)n1c3ccccc3c3c4c(c5c6ccccc6n2c5c31)CNC4=O [CEP-701] | – | R
41 | O=c1cc(-c2cccc3c2Sc2ccccc2S3)oc(N2CCOCC2)c1 [KU-55933] | – | R
42 | O=C(NOCC1CC1)c1ccc(F)c(F)c1Nc1ccc(I)cc1Cl [CI-1040] | – | R

Row | Compound | Iorio_RD (GDSC-RD cell line) | Iorio_SJCRH30 (GDSC-SJCRH30 cell line)
43 | CC1(C)CNc2cc(NC(=O)c3cccnc3NCc3ccncc3)ccc21 [AMG-706] | – | R
44 | CCN(CC)CCCCNc1ncc2cc(-c3cc(OC)cc(OC)c3)c(NC(=O)NC(C)(C)C)nc2n1 [PD-173074] | – | R
45 | Cc1ccc(-n2nc(C(C)(C)C)cc2NC(=O)Nc2ccc(OCCN3CCOCC3)c3ccccc23)cc1 [BIRB-0796] | – | R
46 | Cn1cc(/C=C2\C(=O)Nc3cccnc32)c2ccccc21 [GW-441756] | – | S
47 | CO[C@H]1C[C@@H]2CC[C@@H](C)[C@@](O)(O2)C(=O)C(=O)N2CCCC[C@H]2C(=O)O[C@H]([C@H](C)C[C@@H]2CC[C@@H](OC(=O)C(C)(CO)CO)[C@H](OC)C2)CC(=O)[C@H](C)/C=C(\C)[C@@H](O)[C@@H](OC)C(=O)[C@H](C)C[C@H](C)/C=C/C=C/C=C/1C [Temsirolimus] | – | R
48 | Cc1cn(-c2cc(NC(=O)c3ccc(C)c(Nc4nccc(-c5cccnc5)n4)c3)cc(C(F)(F)F)c2)cn1 [Nilotinib] | – | R
49 | NC(=O)Nc1cc(-c2cccc(F)c2)sc1C(=O)N[C@H]1CCCNC1 [AZD7762] | – | S
50 | Cn1cc(C2=C(c3ccc(Cl)cc3Cl)C(=O)NC2=O)c2ccccc21 [SB-216763] | – | R
51 | NC(=O)c1ccc(N(C(N)=O)c2c(F)cccc2F)nc1-c1ccc(F)cc1F [VX-702] | – | R
52 | CC[C@]1(O)C[C@@H]2CN(CCc3c([nH]c4ccccc34)[C@@](C(=O)OC)(c3cc4c(cc3OC)N(C)[C@H]3[C@@](O)(C(=O)OC)[C@H](OC(C)=O)[C@]5(CC)C=CCN6CC[C@]43[C@@H]65)C2)C1 [Vinblastine] | – | R
53 | CC[C@@]1(O)C(=O)OCc2c1cc1n(c2=O)Cc2cc3ccccc3nc2-1 [Camptothecin] | – | R
54 | CS(=O)(=O)c1ccc(C(=O)Nc2ccc(Cl)c(-c3ccccn3)c2)c(Cl)c1 [Vismodegib] | – | R
55 | C[C@]1(c2nc3c(C(N)=O)cccc3[nH]2)CCCN1 [ABT-888] | – | R
56 | COc1cc(Nc2c(C#N)cnc3cc(OCCCN4CCN(C)CC4)c(OC)cc23)c(Cl)cc1Cl [Bosutinib] | – | R
57 | N.N.[Cl][Pt][Cl] [Cisplatin] | – | R
58 | CC(=O)O[C@@H]1[C@@H](OC(C)=O)[C@@H](O)[C@H](Oc2c(-c3ccc(O)cc3)oc3cc(O)cc(O)c3c2=O)O[C@H]1C [SL-0101-1] | – | R
59 | CN(NC(=O)CC(=O)NN(C)C(=S)c1ccccc1)C(=S)c1ccccc1 [Elesclomol] | – | R
60 | CN(Cc1cnc2nc(N)nc(N)c2n1)c1ccc(C(=O)N[C@@H](CCC(=O)O)C(=O)O)cc1 [Methotrexate] | – | R
61 | CC(=O)O[C@@]12CO[C@@H]1C[C@H](O)[C@@]1(C)C(=O)[C@H](O)C3=C(C)[C@@H](OC(=O)[C@H](O)[C@@H](NC(=O)OC(C)(C)C)c4ccccc4)C[C@@](O)([C@@H](OC(=O)c4ccccc4)[C@H]21)C3(C)C [Docetaxel] | – | R
62 | COc1cc2ncnc(Nc3ccc(F)c(Cl)c3)c2cc1OCCCN1CCOCC1 [Gefitinib] | – | R
